How the values were obtained:
Format in all cases: functional, cell-based
[1] = Anticancer activity against human Calu1 cells by HTS assay; details: Calu-1
NCI-H522 = assay: Anticancer activity against human NCI-H522 cells by HTS assay
A549 = assay: Anticancer activity against human A549 cells by HTS assay
[2] = Anticancer activity against human M4E cells by HTS assay
[3] = Anticancer activity against human NCI-H1944 cells by HTS assay
HeLa = assay: Anticancer activity against human HeLa cells by HTS assay
[4] = Anticancer activity against human LOXIMVI cells by HTS assay; details: LOX IMVI
[5] = Anticancer activity against human 292G cells by HTS assay
HOP-62 = assay: Anticancer activity against human HOP62 cells by HTS assay
[6] = Anticancer activity against human H460 cells by HTS assay; details: NCI-H460
[7] = Anticancer activity against human […] cells by HTS assay
[8] = Anticancer activity against human SKBR cells by HTS assay
[9] = Anticancer activity against human H1299 cells by HTS assay; details: NCI-H1299
NCI-H157 = assay: Anticancer activity against human NCI-H157 cells by HTS assay
M14 = assay: Anticancer activity against human M14 cells by HTS assay
NCI-H1792 = assay: Anticancer activity against human NCI-H1792 cells by HTS assay

Row | IC50 [1] [µM] | IC50 (NCI-H522) [µM] | IC50 (A549) [µM] | IC50 [2] [µM] | IC50 [3] [µM] | IC50 (HeLa) [µM] | IC50 [4] [µM] | IC50 [5] [µM] | IC50 (HOP-62) [µM] | IC50 [6] [µM] | IC50 [7] [µM] | IC50 [8] [µM] | IC50 [9] [µM] | IC50 (NCI-H157) [µM] | IC50 (M14) [µM] | IC50 (NCI-H1792) [µM] | SMILES
1 | 6.53 | > 50 | > 50 | > 50 | > 50 | 46.4 | 0.39 | > 50 | > 50 | > 50 | > 50 | > 50 | 10.5 | > 50 | 0.38 | > 50 | COc1cc(O)c2c(=O)c(OC)c(-c3ccc(OC)c(OC)c3)oc2c1 [RETUSIN]
2 | 5.46 | > 50 | 1.13 | 11.2 | 1.17 | 6.09 | 2.55 | 8.75 | 4.68 | 3.05 | 8.92 | 4.58 | 5.05 | 5.92 | 3.47 | 6.03 | CCCCOc1cc(O)c2c(=O)c(OCCCC)c(-c3ccc(O)c(O)c3)oc2c1
3 | > 50 | > 50 | 31.5 | > 50 | > 50 | 6.62 | > 50 | > 50 | > 50 | > 50 | > 50 | > 50 | > 50 | > 50 | > 50 | > 50 | CCCCOc1cc(O)c2c(=O)c(OCCCC)c(-c3ccc(OCCCC)c(O)c3)oc2c1
4 | > 50 | > 50 | 48.4 | > 50 | > 50 | > 50 | > 50 | > 50 | > 50 | > 50 | > 50 | > 50 | > 50 | > 50 | > 50 | > 50 | CCCCOc1cc(O)c2c(=O)c(OCCCC)c(-c3ccc(OCCCC)c(OCCCC)c3)oc2c1
5 | 7.08 | 1.4 | 0.79 | 1.9 | 0.91 | 0.57 | 2.38 | 2.11 | 2.44 | 1.69 | 3.02 | 0.45 | 6.03 | 0.8 | 2.26 | 3.13 | CCCOc1c(-c2ccc(O)c(O)c2)oc2cc(O)cc(O)c2c1=O
6 | 39.6 | > 50 | 5.4 | 21.3 | 0.46 | 11.1 | 24.1 | 24 | 13.2 | 7.02 | > 50 | 5.28 | 15.6 | 13 | 21.7 | 19.7 | COc1cc(O)c2c(=O)c(OC)c(-c3ccc(O)c(O)c3)oc2c1
7 | 9.39 | 8.14 | 4.02 | 5.77 | 4.42 | 5.18 | 3.68 | 5.31 | 3.28 | 1.14 | 5.63 | 4.72 | 4.84 | 0.84 | 7.61 | 3.63 | CCCOc1cc(O)c2c(=O)c(O)c(-c3ccc(OCCC)c(O)c3)oc2c1
8 | > 50 | 20.2 | 20.8 | 16.2 | 21.9 | 19.5 | 46 | > 50 | 20.1 | 12.8 | > 50 | 10.8 | > 50 | 18.6 | 37.1 | > 50 | COc1cc(O)c2c(=O)c(OC)c(-c3ccc(OC)c(O)c3)oc2c1 [AYANIN]

From ChEMBL document CHEMBL3352654, “Synthesis, biological evaluation and SAR analysis of O-alkylated analogs of quercetin for anticancer” (Bioorg Med Chem Lett, 2014)
